Data set [1] concerns patients with mild-to-moderate asthma. The data set can be described thus: Phase 3 clinical trial, albuterol-budesonide combination vs. mono-components, four times daily for 12 weeks. The format is in vivo, human. To be noted: for Change from baseline in FEV1 AUC0-6 over 12 weeks, LSM / Change from baseline in trough FEV1 over 12 weeks, LSM: four times daily. As to the method: A Phase 3 clinical study evaluated contributions of the mono-components albuterol and budesonide to albuterol/budesonide combination efficacy in patients with mild-to-moderate asthma ≥4 years. Patients≥12 years were randomized 1:1:1:1:1 to four-times-daily albuterol/budesonide 180/160 or 180/80 μg, albuterol 180 μg, budesonide 160 μg or placebo for 12 weeks; patients 4-11 years were not included in this analysis set.
In the study, 1001 patients with mild-to-moderate asthma were randomized 1:1:1:1:1 to ABD 180/160 μg or 180/80 μg, albuterol (A) 180 μg, budesonide (B) 160 μg, or placebo, all four times daily (QID), for 12 weeks. […] Secondary endpoints included time to onset, as measured by 15% improvement in FEV1 within 30 minutes on Day 1, and duration of effect, and Asthma Control Questionnaire-7 (ACQ-7) responder (≥0.5-point reduction from baseline) analysis at Week 12.

The subject of data set [2] is patients with uncontrolled moderate-to-severe asthma. The data set can be described thus: Phase 3 clinical trial, as-needed albuterol-budesonide fixed dose combination vs. albuterol alone: efficacy and study medication use. In kind it is in vivo, human. To be noted: for % of patients with a severe exacerbation / number of patients with a severe exacerbation: as-needed use.

The test system is the same in data set [3]. To be noted: human, in vivo, 180 μg.
Procedure: (§1) Safety endpoints (adverse events [AEs] and serious adverse events [SAEs]) were assessed from date of informed consent/assent through the safety follow-up.
(§2) All randomized patients who received any amount of study drug, classified by the study medication they were randomized to, were included in the efficacy analyses comparing albuterol-budesonide 180/80-μg with albuterol. […] All patients receiving any amount of randomized study medication, and classified by the study medication they actually received, were included for all safety analyses.
The test system is the same in data set [4]. The data set is described as follows: Phase 3 clinical trial, albuterol-budesonide FDC vs. albuterol alone: safety endpoints (adverse events).
Procedure: as §1, §2
The mark [5] stands for this setting: vs placebo, full analysis set ≥12 years.
[6] abbreviates: comparison 180/80-μg versus albuterol, all patients.
The mark [7] stands for this setting: comparison 180/160-μg versus albuterol, excludes children.
Where [8] appears, read: comparison albuterol-budesonide 180/80-μg versus albuterol, all patients.
Where [9] appears, read: comparison albuterol-budesonide 180/160-μg versus albuterol, excludes children (albuterol n=1,014).
Setting [10] is: AE in ≥2% of patients in any group.
Setting [11] is: treatment-related, investigator-assessed AE.

Experimental findings from patent publication US20250345292A1, “COMBINATION OF ALBUTEROL AND BUDESONIDE FOR THE TREATMENT OF ASTHMA” (priority 2022, published 2025) are described below.

For the compound `CCCC1O[C@@H]2C[C@H]3[C@@H]4CCC5=CC(=O)C=C[C@]5(C)[C@H]4[C@@H](O)C[C@]3(C)[C@]2(C(=O)CO)O1` (mixture of isomers) [budesonide 160 μg, (RS)-11β,21-dihydroxy-16α,17α-(butylidenebis(oxy)) pregna-1,4-diene-3,20-dione], in data set [1] (full analysis set ≥12 years), the “Change from baseline in FEV1 AUC0-6 over 12 weeks, LSM” value was determined as 178.0 mL and the “Change from baseline in trough FEV1 over 12 weeks, LSM” value came to 108.9 vs mL. Also, the “Change from baseline in trough FEV1 over 12 weeks, difference in LSM” value in data set [1] (setting [5]) came out at 73.3 mL.
In the case of `CC(C)(C)NCC(O)c1ccc(O)c(CO)c1` (stereo not shown) [albuterol 180-μg, 4-(2-(tert-butylamino)-1-hydroxyethyl)-2-(hydroxymethyl) phenol], in data set [2] (setting [6]), the “Annualized severe exacerbation rate” value is on record as 0.61 and the “Annualized total systemic glucocorticoid exposure (prednisone equivalents), median” value stood at 0.0 mg/year. Besides, in data set [2] (setting [7]), the “Annualized severe exacerbation rate” value amounted to 0.59 and the “Annualized total systemic glucocorticoid exposure (prednisone equivalents), median” value worked out at 0.0 mg/year. In data set [2] (setting [8]), the “% of patients with a severe exacerbation” value is recorded as 26.1% and the “number of patients with a severe exacerbation” value amounted to 276. Moreover, in data set [2] (setting [9]), the “% of patients with a severe exacerbation” value is listed as 26.2% and the “number of patients with a severe exacerbation” value stood at 266. For the same compound, in data set [2] (per treatment arm), the “severe exacerbations requiring ED or urgent care visits (number)” value came out at 66 and the “severe exacerbations requiring hospitalization (number)” value came out at 17. Moreover, the “responders (onset of effect)” value in data set [1] (Day 1, 15% improvement in FEV1 within 30 minutes) is 42.9%. Also, in data set [1] (Day 1, 15% improvement in FEV1 within 30 minutes, responders), the “Median time to onset” value was 9.5 min. Further, in data set [1] (Day 1, responders), the “Median duration of effect” value worked out at 168.2 min. In addition, in data set [1] (Week 12, ≥0.5-point reduction from baseline), the “percentages of ACQ-7 responders” value worked out at 47.2%. Moreover, the “bronchodilation with repeated use over 1-4 weeks” value in data set [1] (compared with placebo) is listed as “no difference”. In data set [1] (full analysis set ≥12 years), the “Change from baseline in FEV1 AUC0-6 over 12 weeks, LSM” value is listed as 157.2 vs mL and the “Change from baseline in trough FEV1 over 12 weeks, LSM” value amounted to 2.7 mL. The “Change from baseline in FEV1 AUC0-6 over 12 weeks, difference in LSM” value in data set [1] (setting [5]) is on record as 60.5 mL. The “frequency of SAEs, including deaths” value in data set [3] is listed as 4.5%. In addition, in data set [4] (setting [10]), the “Asthma, %” value came to 3.3%; the “Back pain, %” value is 1.9%; the “Bronchitis, %” value amounted to 2.6%; the “COVID-19, %” value stood at 4.4%. Moreover, in data set [4] (setting [10]), the “Headache, %” value was determined as 4.7%; the “Hypertension, %” value amounted to 2.5%; the “Influenza, %” value came to 1.3%; the “Nasopharyngitis, %” value is 5.1%. For the same compound, in data set [4] (setting [10]), the “Sinusitis, %” value came to 2.3% and the “Upper respiratory tract infection, %” value came to 2.5%. For the same compound, in data set [4] (Table 1), the “Patients with any AE, %” value is reported as 46.4%. For the same compound, in data set [4] (human, in vivo), the “frequency of AEs leading to discontinuation of treatment” value is listed as 0.9% and the “frequency of inhaled glucocorticoid-associated adverse events” value was 1.3%. Also, the “deaths (number)” value in data set [4] (no deaths considered treatment-related) is listed as 1. Further, in data set [4] (randomized treatment groups), the “frequency of any AE” value was 46.4%. In data set [4] (setting [11]), this compound yielded a dysphonia of 0.4%, an oral candidiasis of 0.5% and an oropharyngeal candidiasis of 0.1%.
